Measurements reported in ChEMBL document CHEMBL1136382, “Spiro[pyrrolidine-2,2'-adamantanes]: synthesis, anti-influenza virus activity and conformational properties” (Bioorg Med Chem Lett, 2003).

Assays:
Epithelial cell = assay: Antiviral activity against influenza B (Hong kong/5/72) in human epithelial cells; format: functional, cell-based
MDCK [1] = assay: Minimum cytotoxic concentration required to cause a microscopically detectable alteration of MDCK, Madin-Darby canine kidney cell morphology.; format: functional, Canis lupus familiaris
MDCK [2] = assay: cells; details: Canis lupus familiaris

C1CNC2(C1)C1CC3CC(C1)CC2C3 (stereo not given)
EC50 (Epithelial cell): > 1100 µM
MCC50 (MDCK [1]): >610.5 µM
EC50 (MDCK [2]): 1.8 µM

CC1CCC2(C3CC4CC(C3)CC2C4)N1C (stereo not given)
EC50 (Epithelial cell): 149 µM
MCC50 (MDCK [1]): 55.3 µM
EC50 (MDCK [2]): 2.7 µM

CC1CCN(C)C12C1CC3CC(C1)CC2C3 (stereo not given)
EC50 (Epithelial cell): > 746 µM
MCC50 (MDCK [1]): >60 µM
EC50 (MDCK [2]): 12.5 µM

CC1CNC2(C1)C1CC3CC(C1)CC2C3 (stereo not given)
EC50 (Epithelial cell): 1040 µM
MCC50 (MDCK [1]): 313.6 µM
EC50 (MDCK [2]): 3.3 µM

CC1CCC2(N1)C1CC3CC(C1)CC2C3 (stereo not given)
EC50 (Epithelial cell): > 1040 µM
MCC50 (MDCK [1]): >414 µM
EC50 (MDCK [2]): 2.5 µM

CN1CCCC12C1CC3CC(C1)CC2C3 (stereo not given)
EC50 (Epithelial cell): > 1040 µM
MCC50 (MDCK [1]): 357 µM
EC50 (MDCK [2]): 2.9 µM

CC1CN(C)C2(C1)C1CC3CC(C1)CC2C3 (stereo not given)
EC50 (Epithelial cell): > 746 µM
MCC50 (MDCK [1]): >226 µM
EC50 (MDCK [2]): 3.3 µM

CC1CCNC12C1CC3CC(C1)CC2C3 (stereo not given)
EC50 (Epithelial cell): > 1040 µM
MCC50 (MDCK [1]): >280 µM
EC50 (MDCK [2]): 3.7 µM

NC12CC3CC(CC(C3)C1)C2 [AMANTADINE]
EC50 (Epithelial cell): > 1330 µM
MCC50 (MDCK [1]): >1211.8 µM
EC50 (MDCK [2]): 1.1 µM

NC(=O)c1ncn([C@@H]2O[C@H](CO)[C@@H](O)[C@H]2O)n1 [RIBAVIRIN]
EC50 (Epithelial cell): > 1020 µM
MCC50 (MDCK [1]): >276.9 µM
EC50 (MDCK [2]): 3.7 µM
